Assay results: patent publication US8586098B2, “Loading of hydrophobic drugs into hydrophilic polymer delivery systems” (Biocompatibles UK Limited, priority 2006, dated 2013)
Values after ≈ are worked out from the molar mass of the structure shown. Read-outs that look alike come from different tables or passages of the source.

Legend:
[1] = solubility in DMSO at room temperature; assay type: physicochemical; settings: for Sol^y in DMSO / Sol^y Ratio: room temperature; for Sol^y Ratio: solubility in solvent (DMSO):solubility in water
From the text: For these compounds the following table gives comparison water and solvent solubilities at room temperature. […]

[2] = solubility in water at room temperature; assay type: physicochemical; settings: for Sol^y in water: room temperature
From the text: For these compounds the following table gives comparison water and solvent solubilities at room temperature.

[3] = background description; cited from earlier work
[4] = background description; cited from earlier work; remark: listed apart in the source
[5] = benzyl alcohol, chloroform, acetone, acetonitrile; cited from earlier work

Row | Sol^y in DMSO [1] [g/L] | Sol^y Ratio [1] | solubility ([1]; DMSO, organic solvent or mixture, room temp, Example 3) [mg/mL] | solubility in water (in words) ([2]; Example 3) | SMILES | Sol^y in water [2] | lipophilicity (in words) [3] | solubility in water (in words) [4] | solubility in organic solvents (in words) [5]
1 | 600 | >10^5 | ~60 (≈ 153 mM) | practically insoluble in water | C[C@@H]1C[C@H]2[C@@H]3CCC4=CC(=O)C=C[C@]4(C)[C@@]3(F)[C@@H](O)C[C@]2(C)[C@@]1(O)C(=O)CO [Dexamethasone] | insol (insoluble means less than 10 mg/l) |  |  | 
2 | 200 | >5 × 10^4 |  |  | CN(Cc1cnc2nc(N)nc(N)c2n1)c1ccc(C(=O)N[C@@H](CCC(=O)O)C(=O)O)cc1 [Methotrexate] | insol (insoluble means less than 10 mg/l) |  |  | 
3 | 50 |  |  |  | CC(=O)O[C@H]1C(=O)[C@@]2(C)[C@H]([C@H](OC(=O)c3ccccc3)[C@]3(O)C[C@H](OC(=O)[C@H](O)[C@@H](NC(=O)c4ccccc4)c4ccccc4)C(C)=C1C3(C)C)[C@]1(OC(C)=O)CO[C@@H]1C[C@@H]2O [Paclitaxel, 5β,20-Epoxy-1,2α,4,7β,10β,13α-hexahydroxytax-11-en-9-one 4,10-diacetate-2-benzoate 13-ester with (2R,3S)—N-benzoyl-3-phenylisoserine] | 0.3 to 30 mg/L | highly lipophilic | insoluble in water | 
4 | 25 | >4 × 10^4 |  |  | CO[C@H]1C[C@@H]2CC[C@@H](C)[C@@](O)(O2)C(=O)C(=O)N2CCCC[C@H]2C(=O)O[C@H]([C@H](C)C[C@@H]2CC[C@@H](O)[C@H](OC)C2)CC(=O)[C@H](C)/C=C(\C)[C@@H](O)[C@@H](OC)C(=O)[C@H](C)C[C@H](C)/C=C/C=C/C=C/1C [Rapamycin] | 0.69 mg/L |  | insoluble in water | freely soluble in benzyl alcohol, chloroform, acetone, and acetonitrile

Row | SMILES | Sol^y in DMSO [1] [g/L] | Sol^y Ratio [1] | solubility ([1]; DMSO, organic solvent or mixture, room temp, Example 3) [mg/mL] | solubility in water (in words) ([2]; Example 3) | Sol^y in water [2] | lipophilicity (in words) [3] | solubility in water (in words) [4] | solubility in organic solvents (in words) [5]
5 | CC[C@@]1(O)C(=O)OCc2c1cc1n(c2=O)Cc2cc3ccccc3nc2-1 [Camptothecin] | 10 | >10^3 |  |  | insol (insoluble means less than 10 mg/l) |  |  | 
